In patent US20150343016A1, “CHEMICAL ENTITIES AND THERAPEUTIC USES THEREOF” (The Regents of the University of Colorado, a body corporate, priority 2010, published 2015):

Tests used:
[1] = test system: 1586 Head and Neck Cancer cell line; assay: MTT assay, Bouvardin with ionizing radiation, 1586 (pre-treated); assay type: cell-based, human; conditions: 1586 cells
Experimental: “Combination Index” computation. Combination Indices were calculated using CalcuSyn software (Biosoft), which uses the method of Chou and Talalay. This method first computes drug-induced effect using the Hill Equation: where E is the measured effect; C is the drug concentration; Emax is the full range of drug effect, usually at or near 100%; IC50 is the drug concentration producing the median effect of 50%; and n is the curve shape parameter describing the steepness of the concentration-effect relationship. The Chou and Talalay method then linearizes the Hill Equation by logarithmic transformation as: where fu is the fraction of cells left unaffected after drug exposure, fa is the fraction of cells affected by the exposure, C is the drug concentration used, Cm is the concentration to achieve the median effect, and n is the curve shape parameter. Cm and n are equivalent to IC50 and n, respectively, in the Hill Equation. The values of n (obtained from the slope), nlog(Cm) (obtained from the absolute value of the intercept), and, therefore, Cm are obtained by plotting log(fu−1−1) versus log(C). These numbers are then used to compute the Combination Index (CI) according to the formula: CI=(D)1/(Dx)1+(D)2/(Dx)2 (26). (Dx)1 and (Dx)2 are the doses required to achieve a given effect level for each treatment, i.e. a specified value of Fraction Affected or Fa. (D)1 and (D)2 are the doses of each treatment in a given combination which gives the same Fa.
The growth inhibitory effects of Bouvardin with ionizing radiation (IR) were evaluated using a modified tetrazolium salt (MTT) assay. In the MTT assay, 1,000 to 2,000 viable cells were plated in 100 uL of growth medium in 96-well plates (Corning, Ithaca, N.Y.). Following an overnight incubation, drug was added in varying concentrations and the plates were irradiated on the same day (co-treatment) or 24 hr later (pre-treatment) and incubated for 6 to 7 days. The tetrazolium salt was added at a concentration of 0.4 mg/mL to each well following the 6- to 7-day treatment. The plates were incubated with the salt for 4 hours at 37° C. At 4 hours, the medium was aspirated off, leaving the dark blue formazan product at the bottom of the wells. The reduced MTT product was solubilized by adding […] of 0.2 N HCl in 75% isopropanol, 23% MilliQ water to each well. Thorough mixing was done using a Titertek multichannel pipetman. The absorbency of each well was measured using an automated plate reader (Molecular Devices, Sunnyvale, Calif.). All experiments were done in triplicate.
MTT assays were used to determine the effect of Bouvardin (concentrations in uM) in combination with ionizing radiation (in Gy, X-axis). FIG. 14 depicts CI values for Bouvardin and radiation on 3 cell lines. Combination Index data from 3 different Head and Neck Cancer cell lines are shown. Black dashed lines represent a CI value of 1. CI values below 1 indicate synergy. 1586 and UM-SCC19 were pre-treated whereas HN31 was treated on the same day.

[2] = biological target: in vitro translation in rabbit reticulocytes; assay: In vitro translation assay in rabbit reticulocytes with Luciferase mRNA; assay type: biochemical
Experimental: In vitro translation assays were performed in rabbit reticulocytes (Promega) according to manufacturer's instruction, in the presence or absence of Bouvardin at final concentrations shown. Luciferase mRNA provided in the kit was used at a final concentration of 1 ug/ul. The reactions samples were incubated for 15 minutes at 37° C. and quenched by dilution with water. Luciferase activity was measured using a plate reader Multi-Mode Microplate Reader (Synergy 2 by BioTek) immediately after luciferase substrate addition. Samples were also subjected to electrophoresis on SDS-polyacrylamide gels and immunoblotted with goat polyclonal α-luciferase primary antibodies (Promega) and donkey anti-goat IgG, HRP secondary antibodies (Promega). The blots were visualized using chemiluminescence detection (Pierce). (A) Luciferase activity at different concentrations of Bouvardin. Error bars show SEM from triplicate samples. (B) Luciferase protein levels in corresponding samples.

## COc1ccc(C[C@H]2C(=O)N[C@H](C)C(=O)N(C)[C@@H]3C(=O)N(C)[C@@H](Cc4ccc(O)c(c4)Oc4ccc(cc4)[C@H]3O)C(=O)N[C@@H](C)C(=O)N[C@H](C)C(=O)N2C)cc1 (stereo in doubt) [Bouvardin, bouvardin]
[1]; Bouvardin 0.001 uM + 1 Gy IR
  Combination Index: 1.553
  Fraction Affected: 0.254
[1]; Bouvardin 0.001 uM + 2 Gy IR
  Combination Index: 0.903
  Fraction Affected: 0.23
[1]; Bouvardin 0.001 uM + 4 Gy IR
  Combination Index: 1.112
  Fraction Affected: 0.503
[1]; Bouvardin 0.003 uM + 1 Gy IR
  Combination Index: 1.898
  Fraction Affected: 0.264
[1]; Bouvardin 0.003 uM + 2 Gy IR
  Combination Index: 1.383
  Fraction Affected: 0.303
[1]; Bouvardin 0.003 uM + 4 Gy IR
  Combination Index: 0.753
  Fraction Affected: 0.51
[1]; Bouvardin 0.006 uM + 1 Gy IR
  Combination Index: 1.626
  Fraction Affected: 0.301
[1]; Bouvardin 0.006 uM + 2 Gy IR
  Combination Index: 1.285
  Fraction Affected: 0.371
[1]; Bouvardin 0.006 uM + 4 Gy IR
  Combination Index: 0.732
  Fraction Affected: 0.634
[1]; Bouvardin 0.01 uM + 1 Gy IR
  Combination Index: 0.433
  Fraction Affected: 0.45
[1]; Bouvardin 0.01 uM + 2 Gy IR
  Combination Index: 1.482
  Fraction Affected: 0.518
[1]; Bouvardin 0.01 uM + 4 Gy IR
  Combination Index: 1.348
  Fraction Affected: 0.604
[1]; Bouvardin 0.03 uM + 1 Gy IR
  Combination Index: 1.211
  Fraction Affected: 0.537
[1]; Bouvardin 0.03 uM + 2 Gy IR
  Combination Index: 0.841
  Fraction Affected: 0.628
[1]; Bouvardin 0.03 uM + 4 Gy IR
  Combination Index: 1.284
  Fraction Affected: 0.624
[1]; Bouvardin 0.06 uM + 1 Gy IR
  Combination Index: 0.898
  Fraction Affected: 0.584
[1]; Bouvardin 0.06 uM + 2 Gy IR
  Combination Index: 0.962
  Fraction Affected: 0.677
[1]; Bouvardin 0.06 uM + 4 Gy IR
  Combination Index: 1.284
  Fraction Affected: 0.813
[1]; Bouvardin 0.1 uM + 1 Gy IR
  Combination Index: 1.815
  Fraction Affected: 0.607
[1]; Bouvardin 0.1 uM + 2 Gy IR
  Combination Index: 3.214
  Fraction Affected: 0.68
[1]; Bouvardin 0.1 uM + 4 Gy IR
  Combination Index: 2.639
  Fraction Affected: 0.712
[1]; Bouvardin 0.3 uM + 1 Gy IR
  Combination Index: 2.656
  Fraction Affected: 0.682
[1]; Bouvardin 0.3 uM + 2 Gy IR
  Combination Index: 2.382
  Fraction Affected: 0.731
[1]; Bouvardin 0.3 uM + 4 Gy IR
  Combination Index: 3.756
  Fraction Affected: 0.708
[1]; Bouvardin 0.6 uM + 1 Gy IR
  Combination Index: 4.194
  Fraction Affected: 0.688
[1]; Bouvardin 0.6 uM + 2 Gy IR
  Combination Index: 4.765
  Fraction Affected: 0.743
[1]; Bouvardin 0.6 uM + 4 Gy IR
  Combination Index: 4.11
  Fraction Affected: 0.745
[1]; Bouvardin 1 uM + 1 Gy IR
  Combination Index: 1.553
  Fraction Affected: 0.254
[1]; Bouvardin 1 uM + 2 Gy IR
  Combination Index: 0.903
  Fraction Affected: 0.23
[1]; Bouvardin 1 uM + 4 Gy IR
  Combination Index: 1.112
  Fraction Affected: 0.503
[2]
  IC50 in in vitro translation reactions: nM range
[2]; 15 minutes at 37° C.
  effect on in vitro translation (luciferase activity and protein): inhibits translation
